Measurements reported in patent US12172995B2, “Substituted indole and indazole compounds” (BRISTOL-MYERS SQUIBB COMPANY, priority 2018, dated 2024).

Columns and labels:
Format in all cases: cell-based
human TLR8 = target: T1, human TLR8 (Homo sapiens, UniProt Q9NR97); test: TLR8 inhibition reporter assay (HEK-Blue SEAP); settings: HEK-Blue cells overexpressing human TLR8, stimulated with R848 15.9 μM, 22 hour incubation
T1 construct: host or cells: HEK-Blue cells
T1 sequence (Q9NR97 27-1041): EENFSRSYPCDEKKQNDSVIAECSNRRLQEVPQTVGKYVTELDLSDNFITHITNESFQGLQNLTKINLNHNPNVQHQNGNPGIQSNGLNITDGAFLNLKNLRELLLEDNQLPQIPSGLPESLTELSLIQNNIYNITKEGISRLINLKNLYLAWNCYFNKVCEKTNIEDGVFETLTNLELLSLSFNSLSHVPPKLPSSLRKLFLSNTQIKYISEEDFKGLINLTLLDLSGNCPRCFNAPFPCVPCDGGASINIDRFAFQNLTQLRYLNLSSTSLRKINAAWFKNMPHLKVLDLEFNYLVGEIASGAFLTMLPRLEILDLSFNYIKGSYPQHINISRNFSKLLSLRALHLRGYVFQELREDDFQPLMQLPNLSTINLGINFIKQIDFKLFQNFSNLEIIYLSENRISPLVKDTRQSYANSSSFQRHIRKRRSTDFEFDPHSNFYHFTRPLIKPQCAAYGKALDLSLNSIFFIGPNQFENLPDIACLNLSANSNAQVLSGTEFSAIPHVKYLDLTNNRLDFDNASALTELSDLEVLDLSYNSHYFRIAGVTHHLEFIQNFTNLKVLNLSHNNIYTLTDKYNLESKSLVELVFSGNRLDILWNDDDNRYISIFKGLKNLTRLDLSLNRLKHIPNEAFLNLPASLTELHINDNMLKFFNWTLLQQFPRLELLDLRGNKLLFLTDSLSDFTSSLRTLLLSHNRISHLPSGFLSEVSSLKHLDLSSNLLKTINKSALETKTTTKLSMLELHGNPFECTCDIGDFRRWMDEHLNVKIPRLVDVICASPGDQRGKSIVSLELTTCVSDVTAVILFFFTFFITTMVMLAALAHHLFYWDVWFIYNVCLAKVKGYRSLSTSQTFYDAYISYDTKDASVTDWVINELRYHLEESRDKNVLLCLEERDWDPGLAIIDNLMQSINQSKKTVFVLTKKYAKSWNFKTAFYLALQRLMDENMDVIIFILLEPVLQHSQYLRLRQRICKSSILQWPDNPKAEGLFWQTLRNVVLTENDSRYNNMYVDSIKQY
In short: (§1)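 HEK-Blue cells overexpressing the receptor, with an NF-κB/AP-1-driven SEAP reporter, were pre-treated with compound (0.05 nM to 50 μM) for 30 min at room temperature. Stimulation used gardiquimod 7.5 μM (TLR7), R848 15.9 μM (TLR8) or ODN2006 5 nM (TLR9), followed by 22 h at 37 °C.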

human TLR9 = target: T2, human TLR9 (Homo sapiens, UniProt Q9NR96); test: TLR9 inhibition reporter assay (HEK-Blue SEAP); settings: HEK-Blue cells overexpressing human TLR9, stimulated with ODN2006 5 nM, 22 hour incubation
T2 construct: host or cells: HEK-Blue cells
T2 sequence (Q9NR96 26-1032): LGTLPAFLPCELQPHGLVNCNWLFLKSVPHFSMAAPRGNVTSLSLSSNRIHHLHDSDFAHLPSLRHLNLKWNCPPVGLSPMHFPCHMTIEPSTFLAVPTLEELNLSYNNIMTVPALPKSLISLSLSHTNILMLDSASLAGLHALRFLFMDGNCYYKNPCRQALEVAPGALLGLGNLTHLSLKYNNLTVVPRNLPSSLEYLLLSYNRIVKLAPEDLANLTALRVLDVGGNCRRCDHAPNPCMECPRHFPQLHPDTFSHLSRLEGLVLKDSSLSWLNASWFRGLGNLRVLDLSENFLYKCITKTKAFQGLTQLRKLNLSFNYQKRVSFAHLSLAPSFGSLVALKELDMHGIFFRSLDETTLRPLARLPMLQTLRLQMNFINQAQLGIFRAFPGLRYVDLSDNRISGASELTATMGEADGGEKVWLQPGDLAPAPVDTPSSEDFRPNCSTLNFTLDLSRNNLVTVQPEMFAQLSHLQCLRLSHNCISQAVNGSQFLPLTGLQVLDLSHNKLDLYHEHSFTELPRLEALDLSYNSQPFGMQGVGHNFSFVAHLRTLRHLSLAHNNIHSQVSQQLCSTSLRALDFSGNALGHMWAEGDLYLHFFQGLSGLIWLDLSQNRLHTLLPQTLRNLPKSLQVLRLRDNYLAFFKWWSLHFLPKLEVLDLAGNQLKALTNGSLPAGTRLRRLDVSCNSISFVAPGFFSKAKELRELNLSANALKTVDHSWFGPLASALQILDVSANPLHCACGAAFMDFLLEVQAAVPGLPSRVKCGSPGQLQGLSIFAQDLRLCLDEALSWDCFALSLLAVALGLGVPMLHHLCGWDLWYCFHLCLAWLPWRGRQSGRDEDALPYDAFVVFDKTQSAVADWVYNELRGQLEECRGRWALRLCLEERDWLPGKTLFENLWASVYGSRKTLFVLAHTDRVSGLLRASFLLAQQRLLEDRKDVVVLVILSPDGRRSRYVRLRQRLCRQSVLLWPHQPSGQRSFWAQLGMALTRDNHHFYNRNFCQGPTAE
In short: as §1

human TLR7 = target: T3, human TLR7 (Homo sapiens, UniProt Q9NYK1); test: TLR7 inhibition reporter assay (HEK-Blue SEAP); settings: HEK-Blue cells overexpressing human TLR7, stimulated with gardiquimod 7.5 μM, 22 hour incubation
T3 construct: host or cells: HEK-Blue cells
T3 sequence (Q9NYK1 27-1049): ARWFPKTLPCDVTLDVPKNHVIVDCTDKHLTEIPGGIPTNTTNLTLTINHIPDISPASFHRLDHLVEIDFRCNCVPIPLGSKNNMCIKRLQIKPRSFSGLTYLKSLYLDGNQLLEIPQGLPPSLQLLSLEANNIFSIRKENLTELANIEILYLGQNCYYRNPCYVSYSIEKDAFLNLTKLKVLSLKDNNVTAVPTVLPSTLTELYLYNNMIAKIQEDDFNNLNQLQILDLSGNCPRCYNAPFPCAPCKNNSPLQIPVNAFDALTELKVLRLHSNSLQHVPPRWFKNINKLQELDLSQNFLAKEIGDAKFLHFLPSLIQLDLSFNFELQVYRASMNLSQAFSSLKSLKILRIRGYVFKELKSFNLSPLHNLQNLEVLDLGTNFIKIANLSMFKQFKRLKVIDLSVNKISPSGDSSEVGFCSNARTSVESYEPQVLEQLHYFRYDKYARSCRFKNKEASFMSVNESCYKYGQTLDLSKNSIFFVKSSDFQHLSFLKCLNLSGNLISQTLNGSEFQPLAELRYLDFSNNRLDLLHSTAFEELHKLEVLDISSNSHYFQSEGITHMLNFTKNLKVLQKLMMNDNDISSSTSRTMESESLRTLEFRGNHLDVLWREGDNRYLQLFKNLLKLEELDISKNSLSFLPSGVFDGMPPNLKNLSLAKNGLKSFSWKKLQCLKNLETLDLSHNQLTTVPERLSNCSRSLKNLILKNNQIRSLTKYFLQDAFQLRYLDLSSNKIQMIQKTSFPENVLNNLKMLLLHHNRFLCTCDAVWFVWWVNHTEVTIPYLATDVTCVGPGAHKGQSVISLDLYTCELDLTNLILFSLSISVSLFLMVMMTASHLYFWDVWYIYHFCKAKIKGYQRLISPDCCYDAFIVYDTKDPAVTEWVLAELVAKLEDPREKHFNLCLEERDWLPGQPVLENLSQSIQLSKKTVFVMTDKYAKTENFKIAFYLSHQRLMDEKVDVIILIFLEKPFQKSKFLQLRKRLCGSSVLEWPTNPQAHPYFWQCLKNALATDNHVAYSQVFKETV
In short: as §1

Structure (SMILES)	IC50 (human TLR8) [nM]	IC50 (human TLR9) [nM]	IC50 (human TLR7) [nM]
Cc1cc(-c2cc3[nH]nc(C4CCC(N5CCC(S(C)(=O)=O)C5)CC4)c3cc2C(C)C)cn2ncnc12 (single isomer, unassigned) [Example 212, 6-(5-isopropyl-3-(4-(3-(methylsulfonyl)pyrrolidin-1-yl)cyclohexyl)-1H-indazol-6-yl)-8-methyl-[1,2,4]triazolo[1,5-a]pyridine]	0.36	24100	8.2
Cc1cc(-c2cc3[nH]nc(C4CCCNC4)c3cc2C)cc(C)n1 (stereo not drawn) [Example 50, 6-(2,6-dimethylpyridin-4-yl)-5-methyl-3-(piperidin-3-yl)-1H-indazole]	1.5	404	63.4
Cc1cc(-c2cc3[nH]nc(C4CCC(N5CC(OC(C)C)C5)CC4)c3cc2C(C)C)cn2ncnc12 (single isomer, unassigned) [Example 162, 6-(3-(4-(3-isopropoxyazetidin-1-yl)cyclohexyl)-5-isopropyl-1H-indazol-6-yl)-8-methyl-[1,2,4]triazolo[1,5-a]pyridine]	0.7	8540	1.5
Cc1cc(-c2cc(C)c3ncnn3c2)cc2[nH]nc(C3CCCN(C4CCOCC4)C3)c12 (stereo not drawn) [Example 60, 8-methyl-6-(4-methyl-3-(1-(tetrahydro-2H-pyran-4-yl)piperidin-3-yl)-1H-indazol-6-yl)-[1,2,4]triazolo[1,5-a]pyridine]	62.2	4250	79.3

Now from value to compound:

IC50 (human TLR8) [nM]	IC50 (human TLR9) [nM]	IC50 (human TLR7) [nM]	Structure (SMILES)
0.4	1120	10.2	Cc1cc2c(C3CCC(N(C)C)CC3)n[nH]c2cc1-c1cc(C)c2ncnn2c1 (single isomer, unassigned) [Example 3, N,N-dimethyl-4-(5-methyl-6-(8-methyl-[1,2,4]triazolo[1,5-a]pyridin-6-yl)-1H-indazol-3-yl)cyclohexan-1-amine]
19.5	3340	13.5	Cc1cc(-c2cc(C)c3ncnn3c2)cc2[nH]nc(C3CCCN(C)C3)c12 (stereo not drawn) [Example 61, 8-methyl-6-(4-methyl-3-(1-methylpiperidin-3-yl)-1H-indazol-6-yl)-[1,2,4]triazolo[1,5-a]pyridine]
0.8	8690	1.5	COC1CN(C2CCC(c3n[nH]c4cc(-c5cc(C)c6ncnn6c5)c(C(C)C)cc34)CC2)C1 (stereo not drawn) [Example 145, 6-(5-isopropyl-3-(4-(3-methoxyazetidin-1-yl)cyclohexyl)-1H-indazol-6-yl)-8-methyl-[1,2,4]triazolo[1,5-a]pyridine]
37.8	2110	6.9	Cc1cc(-c2cc(C)c3ncnn3c2)cc2[nH]nc(C3CCN(CC(=O)N(C)C)CC3)c12 [Example 76, N,N-dimethyl-2-(4-(4-methyl-6-(8-methyl-[1,2,4]triazolo[1,5-a]pyridin-6-yl)-1H-indazol-3-yl)piperidin-1-yl) acetamide]
3.3	1370	9.8	Cc1cc2c(C3CCN(CC#N)CC3)n[nH]c2cc1-c1cc(C)c2ncnn2c1 [Example 71, 2-(4-(5-methyl-6-(8-methyl-[1,2,4]triazolo[1,5-a]pyridin-6-yl)-1H-indazol-3-yl)piperidin-1-yl)acetonitrile]
